Publication PMC9304199, “A small molecule CFTR potentiator restores ATP‐dependent channel gating to the cystic fibrosis mutant G551D‐CFTR” (British Journal of Pharmacology, 2022)

Assays:
[1] = biological target: T1, native CFTR, genotype F508del/F508del (Homo sapiens, UniProt P13569, DEL508-508); assay: Ussing chamber CFTR-mediated short-circuit current (Isc) in F508del/F508del human bronchial epithelial cells; assay type: cell-based; conditions: for EC50: F508del/F508del epithelia of hBE cells, basal F508del‐CFTR expression, Isc, 27°C, read-out: EC50 (μM) (95% CI); for Emax: HBE, read-out: Maximal effect (%) (95% CI)
T1 construct: For functional studies of native CFTR, we used primary cultures of human bronchial epithelial cells; host or cells: primary human bronchial epithelial cells, F508del/F508del, air-liquid interface cultures
T1 sequence (P13569 with tags, fused parts or gaps DEL508-508): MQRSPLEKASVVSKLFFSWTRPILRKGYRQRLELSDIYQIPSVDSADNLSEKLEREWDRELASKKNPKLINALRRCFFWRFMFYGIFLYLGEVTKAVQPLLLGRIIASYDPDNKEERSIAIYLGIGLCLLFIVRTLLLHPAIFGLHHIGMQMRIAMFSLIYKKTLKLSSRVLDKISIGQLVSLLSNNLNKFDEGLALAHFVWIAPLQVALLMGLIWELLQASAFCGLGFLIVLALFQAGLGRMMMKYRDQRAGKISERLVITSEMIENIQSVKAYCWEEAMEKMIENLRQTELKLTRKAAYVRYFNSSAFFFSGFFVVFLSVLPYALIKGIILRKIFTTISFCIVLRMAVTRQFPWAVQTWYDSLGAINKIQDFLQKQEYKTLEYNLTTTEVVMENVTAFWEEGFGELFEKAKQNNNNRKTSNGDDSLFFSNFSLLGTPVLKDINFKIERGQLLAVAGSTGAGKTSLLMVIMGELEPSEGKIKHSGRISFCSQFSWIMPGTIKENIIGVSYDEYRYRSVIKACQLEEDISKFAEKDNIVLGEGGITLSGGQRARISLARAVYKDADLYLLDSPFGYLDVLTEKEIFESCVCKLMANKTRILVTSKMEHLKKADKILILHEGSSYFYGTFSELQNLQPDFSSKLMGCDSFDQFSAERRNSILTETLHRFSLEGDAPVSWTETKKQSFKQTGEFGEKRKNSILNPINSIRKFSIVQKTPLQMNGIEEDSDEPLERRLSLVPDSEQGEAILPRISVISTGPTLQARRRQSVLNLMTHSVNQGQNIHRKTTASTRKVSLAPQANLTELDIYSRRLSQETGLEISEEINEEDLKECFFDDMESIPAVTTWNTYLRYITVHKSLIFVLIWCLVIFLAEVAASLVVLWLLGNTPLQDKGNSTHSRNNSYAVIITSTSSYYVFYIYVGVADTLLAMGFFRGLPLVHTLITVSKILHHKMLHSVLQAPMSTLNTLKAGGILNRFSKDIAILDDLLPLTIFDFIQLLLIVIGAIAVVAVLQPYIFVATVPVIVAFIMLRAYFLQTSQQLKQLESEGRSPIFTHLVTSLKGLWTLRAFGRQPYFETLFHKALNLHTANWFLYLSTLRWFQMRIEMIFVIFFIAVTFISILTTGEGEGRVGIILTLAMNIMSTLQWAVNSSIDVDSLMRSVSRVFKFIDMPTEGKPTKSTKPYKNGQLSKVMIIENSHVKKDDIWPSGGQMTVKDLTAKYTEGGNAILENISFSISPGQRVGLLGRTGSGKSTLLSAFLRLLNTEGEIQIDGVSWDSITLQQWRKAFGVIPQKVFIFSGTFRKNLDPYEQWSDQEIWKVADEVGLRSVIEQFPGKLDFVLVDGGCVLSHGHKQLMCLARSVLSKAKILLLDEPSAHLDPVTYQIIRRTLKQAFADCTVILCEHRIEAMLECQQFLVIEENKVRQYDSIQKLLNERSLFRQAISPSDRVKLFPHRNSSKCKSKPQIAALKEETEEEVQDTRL
From the text: For functional studies of native CFTR, we used primary cultures of human bronchial epithelial cells of genotypes F508del/F508del and F508del/G551D. Passage 1 (P1) human bronchial epithelial cells from SH Randell (University of North Carolina [UNC] Cystic Fibrosis Center Tissue Procurement and Cell Culture Core) were differentiated at an air–liquid interface as described by Neuberger et al., ([2011]) with some modifications. The research conducted on human cells at UNC has been verified as compliant with Pfizer policies, including institutional review board or institutional ethics committee approval. Cells were thawed and expanded in BEGM™ Bronchial Epithelial Cell Growth Medium (cat. no. CC‐3170, Lonza, USA) supplemented with retinoic acid (10 nM) and banked at P2. For functional assays, P2 cells were expanded to P4, and 5 × 10^5 P4 human bronchial epithelial cells were seeded in growth medium on Snapwell filter inserts (cat. no. 3801, Corning, NY, USA). Cells were switched to differentiation medium the following day and cultured submerged for 3 days before the medium was removed from the apical membrane to establish an air–liquid interface. Thereafter, the basolateral medium was changed every 2–3 days and mucus washed from the apical membrane every 2–3 weeks and the day prior to use starting 21 days after initiating air–liquid interface culture.
After >30 days of air–liquid interface culture on Snapwell filter inserts, human bronchial epithelial cells formed well differentiated, electrically tight epithelia (Rt > 200 Ω cm^2). Prior to study, F508del/F508del and F508del/G551D human bronchial epithelial cell cultures were incubated at 37°C and 5% CO2.
Epithelia were mounted in Ussing chambers and data acquired and analysed as described above for Ussing chamber studies of FRT cells heterologously expressing CFTR with the following exceptions. Both the apical and basolateral membranes were bathed in solutions containing (mM): 137 NaCl, 4 KCl, 1.8 CaCl2, 1 MgCl2, 10 Na HEPES, and 10 glucose (pH 7.4 with NaOH). Epithelia of F508del/G551D human bronchial epithelial cells were studied at 35°C, whereas those of F508del/F508del human bronchial epithelial cells were assayed at 27°C to maintain the apical membrane expression of F508del‐CFTR. After cancelling voltage offsets, transepithelial voltage was clamped at 0 mV and short‐circuit current (Isc) recorded continuously. The protocol to record CFTR‐mediated Isc was the same as for ICl ^apical measurements except that amiloride (30 μM, apical solution) was added to inhibit the epithelial Na^+ channel before forskolin (10 μM, apical and basolateral solutions) addition.

[2] = biological target: G551D‐CFTR (Homo sapiens, UniProt P13569, G551D); assay: Ussing chamber apical Cl− current (ICl apical) in FRT epithelia expressing G551D‐CFTR; assay type: cell-based; set-up: assays at Charles River Laboratories (ChanTest); conditions: for EC50: G551D‐CFTR FRT epithelia, ICl apical, 27°C, read-out: EC50 (μM) (95% CI); for Emax: read-out: Maximal effect (%) (95% CI)
Sequence of G551D‐CFTR (P13569 whole entry G551D): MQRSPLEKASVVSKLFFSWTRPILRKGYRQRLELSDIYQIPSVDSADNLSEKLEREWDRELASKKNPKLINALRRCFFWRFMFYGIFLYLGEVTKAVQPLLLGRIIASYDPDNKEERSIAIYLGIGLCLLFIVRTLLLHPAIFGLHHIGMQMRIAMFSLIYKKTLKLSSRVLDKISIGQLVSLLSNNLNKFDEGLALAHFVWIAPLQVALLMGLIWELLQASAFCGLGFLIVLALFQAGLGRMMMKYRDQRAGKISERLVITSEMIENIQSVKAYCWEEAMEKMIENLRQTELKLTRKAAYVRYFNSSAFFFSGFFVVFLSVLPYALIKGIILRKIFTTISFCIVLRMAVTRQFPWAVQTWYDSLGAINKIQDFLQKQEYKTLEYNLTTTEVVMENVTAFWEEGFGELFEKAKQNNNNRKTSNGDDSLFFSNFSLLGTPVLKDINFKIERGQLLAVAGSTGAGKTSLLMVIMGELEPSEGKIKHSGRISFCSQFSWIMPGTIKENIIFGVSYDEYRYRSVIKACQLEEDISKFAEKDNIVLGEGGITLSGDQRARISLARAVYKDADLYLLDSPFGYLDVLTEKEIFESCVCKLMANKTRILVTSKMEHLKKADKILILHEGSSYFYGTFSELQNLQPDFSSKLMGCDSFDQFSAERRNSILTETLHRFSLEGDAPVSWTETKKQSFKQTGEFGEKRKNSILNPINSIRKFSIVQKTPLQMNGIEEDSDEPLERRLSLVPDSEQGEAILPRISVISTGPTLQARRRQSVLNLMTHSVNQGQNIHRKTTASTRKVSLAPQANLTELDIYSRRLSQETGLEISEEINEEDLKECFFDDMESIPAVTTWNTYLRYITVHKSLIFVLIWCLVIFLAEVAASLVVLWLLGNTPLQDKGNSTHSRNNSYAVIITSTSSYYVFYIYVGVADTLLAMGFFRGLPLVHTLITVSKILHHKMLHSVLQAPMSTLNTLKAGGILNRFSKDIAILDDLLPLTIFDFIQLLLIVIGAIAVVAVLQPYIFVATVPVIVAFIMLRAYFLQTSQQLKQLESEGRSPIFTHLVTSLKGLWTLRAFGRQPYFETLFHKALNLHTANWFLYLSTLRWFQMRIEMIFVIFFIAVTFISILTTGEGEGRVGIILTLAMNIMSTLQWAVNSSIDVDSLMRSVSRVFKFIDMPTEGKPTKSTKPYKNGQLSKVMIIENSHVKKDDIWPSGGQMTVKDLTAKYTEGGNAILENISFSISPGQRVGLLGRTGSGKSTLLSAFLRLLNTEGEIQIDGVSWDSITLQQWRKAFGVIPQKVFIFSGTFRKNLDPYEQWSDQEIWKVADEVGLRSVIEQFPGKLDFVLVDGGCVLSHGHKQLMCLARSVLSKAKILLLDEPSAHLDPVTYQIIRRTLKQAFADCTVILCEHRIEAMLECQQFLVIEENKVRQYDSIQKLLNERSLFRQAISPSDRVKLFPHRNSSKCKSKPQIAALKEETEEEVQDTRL
Method: Ussing chamber studies to determine the concentration–response relationships of CFTR potentiators (Figure 1c–f) were performed at Charles River Laboratories (ChanTest) (Cleveland, OH, USA). For these studies, FRT cells were stably transfected with CFTR cDNAs with the F508del and G551D variants and the common polymorphism M470 (synthesised by System Biosciences, Palo Alto, CA, USA) using the Flp‐In™ system (Thermo Fisher Scientific, Waltham, MA, USA). The F508del‐CFTR cDNA contained the following differences from the canonical CFTR cDNA sequence (NCBI Accession Number NM_000492): del CTT (1521–1523) to delete F508; synonymous changes T > C (798), A > G (801), T > C (804) to remove a cryptic bacterial promoter; synonymous change T > C (1095); G > A (1408) to give M470 and was amplified using the primers 5′ […] 3′ and 5′ […] 3′. The G551D‐CFTR cDNA contained the following differences from the canonical CFTR cDNA sequence (NCBI Accession Number NM_000492): G > A (1652) to replace G551 with D551; synonymous changes T > C (798), A > G (801), T > C (804) to remove a cryptic bacterial promoter; synonymous change A > C (516); synonymous change T > C (1095); G > A (1408) to give M470 and was amplified using the primers 5′ […] 3′ and 5′ […] 3′. Using Kpn1 and Not1 restriction sites, the F508del‐ and G551D‐CFTR cDNAs were inserted into pcDNA5/FRT (Flp‐In™) (RRID:Addgene_31984). An FRT cell line stably expressing a flippase (Flp)‐recombinase recognition target integration site (generated by Evotec AG, Hamburg, Germany, using isogenic FRT cells from LJV Galietta) was transfected with the F508del‐ and G551D‐CFTR plasmids and the Flp recombinase plasmid pOG44 (RRID:Addgene_129419) following the manufacturer's instructions. To identify FRT cells expressing F508del‐ and G551D‐CFTR, cells were grown under hygromycin selection and individual clones picked, expanded, and verified for CFTR expression. For Ussing chamber studies to determine the plasma membrane stability of F508del‐CFTR, FRT cells expressing F508del‐CFTR from LJV Galietta were cultured and used as described previously (Meng et al., [2017]).
To grow FRT cells as polarised epithelia, 2 × 10^5 FRT cells were seeded on Snapwell filter inserts and cultured for 7–14 days before use; media were changed every 2–3 days. […]
To test the effects of CP‐628006 on CFTR Cl^− channels in the apical membrane of FRT epithelia, we permeabilized the basolateral membrane with amphotericin B (100 μM). After cancelling voltage offsets, we clamped transepithelial voltage at 0 mV and measured apical Cl^− current (ICl ^apical) continuously using a Physiologic Instruments VCC MC6/8 multichannel voltage/current clamp (Li et al., [2004]).

SMILES | EC50 [1] | Emax [1] | EC50 [2] | Emax [2]
Cc1ncccc1CNC(=O)c1ccc2c(c1)CC[C@H]1C[C@](O)(CCC(F)(F)F)CC[C@]21Cc1ccccc1 (racemic) [CP‐628006, rac‐(4bR,7R,8aS)‐4b‐benzyl‐7‐hydroxy‐N‐((2‐methylpyridin‐3‐yl)methyl)‐7‐(3,3,3‐trifluoropropyl)‐4b,5,6,7,8,8a,9,10‐octahydrophenanthrene‐2‐carboxamide] | 0.062 µM | 56% | 1.68 µM | 39%
CC(C)(C)c1cc(C(C)(C)C)c(NC(=O)c2c[nH]c3ccccc3c2=O)cc1O [ivacaftor, reference compound] | 0.002 µM | 102% | 0.003 µM | 97%
